# Test results published in ChEMBL document CHEMBL1122966, “Compactin (ML-236B) and related compounds as potential cholesterol-lowering agents that inhibit HMG-CoA reductase” (J Med Chem, 1985).
# What was measured:
# [1] = molecular target: T1, 3-hydroxy-3-methylglutaryl-coenzyme A reductase (Rattus norvegicus, UniProt P51639); test: Binding affinity was determined against purified rat liver HMG-coA reductase enzyme
# T1 sequence (P51639 whole entry): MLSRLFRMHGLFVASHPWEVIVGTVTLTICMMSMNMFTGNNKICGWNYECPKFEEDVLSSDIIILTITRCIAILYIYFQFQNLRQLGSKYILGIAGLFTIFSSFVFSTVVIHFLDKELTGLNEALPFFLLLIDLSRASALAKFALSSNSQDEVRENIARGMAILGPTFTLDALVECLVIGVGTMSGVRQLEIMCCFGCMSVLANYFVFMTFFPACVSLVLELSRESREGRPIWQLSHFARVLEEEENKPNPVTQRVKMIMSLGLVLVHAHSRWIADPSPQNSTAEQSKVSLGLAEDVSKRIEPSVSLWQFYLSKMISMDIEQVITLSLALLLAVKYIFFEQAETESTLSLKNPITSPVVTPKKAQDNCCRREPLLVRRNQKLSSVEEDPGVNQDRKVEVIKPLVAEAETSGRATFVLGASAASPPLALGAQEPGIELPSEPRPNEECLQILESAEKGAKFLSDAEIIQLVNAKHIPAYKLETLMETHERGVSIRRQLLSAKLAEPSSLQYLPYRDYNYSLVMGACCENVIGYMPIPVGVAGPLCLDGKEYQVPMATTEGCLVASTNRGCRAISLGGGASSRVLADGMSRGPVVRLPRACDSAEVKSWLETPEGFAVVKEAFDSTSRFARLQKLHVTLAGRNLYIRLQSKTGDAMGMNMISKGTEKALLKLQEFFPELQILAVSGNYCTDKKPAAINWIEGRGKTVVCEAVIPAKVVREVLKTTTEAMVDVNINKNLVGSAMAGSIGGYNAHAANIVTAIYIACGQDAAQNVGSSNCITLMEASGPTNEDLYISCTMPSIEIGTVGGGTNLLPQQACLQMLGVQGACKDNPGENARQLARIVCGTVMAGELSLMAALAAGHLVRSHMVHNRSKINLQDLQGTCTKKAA
# Homo sapiens [2] = species: Homo sapiens; test: Ability to inhibit cholesterol biosynthesis from [14C]acetate in cultured human skin fibroblasts at the concentration of 1 uM; assay type: functional
# Homo sapiens [3] = species: Homo sapiens; test: Ability to inhibit cholesterol biosynthesis from [14C]acetate in cultured human skin fibroblasts at the concentration of 10 uM; assay type: functional
# Homo sapiens [4] = species: Homo sapiens; test: Ability to inhibit cholesterol biosynthesis from [14C]acetate in cultured human skin fibroblasts at the concentration of 10 nM; assay type: functional
# Homo sapiens [5] = species: Homo sapiens; test: Ability to inhibit cholesterol biosynthesis from [14C]acetate in cultured human skin fibroblasts at the concentration of 100 nM; assay type: functional
# Homo sapiens [6] = species: Homo sapiens; test: Ability to inhibit cholesterol biosynthesis from [14C]acetate in cultured human skin fibroblasts at the concentration of 1 nM; assay type: functional
smiles,measurement,setting,value
CC[C@H](C)C(=O)O[C@H]1CCC=C2C=C[C@H](C)[C@H](CC[C@@H]3C[C@@H](O)CC(=O)O3)[C@H]21 [MEVASTATIN],Ki,[1],~1 nM
same,inhibition at 1 µM,Homo sapiens [2],95%
same,inhibition at 10 µM,Homo sapiens [3],100%
same,inhibition at 0.01 µM,Homo sapiens [4],80%
same,inhibition at 0.1 µM,Homo sapiens [5],90%
same,inhibition at 0.001 µM,Homo sapiens [6],50%
